Test results published in PubChem BioAssay AID1918999 (Molecular Pharmacology Branch, DTP, NCI, 2023).

Test system: 556581-035-R-J1-PDC complex spheroid growth
Experiment: Anticancer human tumor 556581-035-R-J1-PDC patient-derived ovarian carcinoma cell line growth inhibition [AhR]
Settings: for IC50: curve of first compound; for viability, T/C: stronger effect = lower value
Method in brief: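 Spheroids combined tumor cells with HUVEC endothelial cells and human MSCs as stroma. AhR antagonists were paired with standard or investigational drugs, each dosed in half-log steps down from near clinical Cmax, or from 10 microM where Cmax was unknown.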

[1] = second compound 0.1 µM, first compound 0.0316 µM
[2] = second compound 0.1 µM, first compound 0.1 µM
[3] = second compound 0.1 µM, first compound 0.316 µM
[4] = second compound 0.1 µM, first compound 1 µM
[5] = second compound 0.1 µM, first compound 3.16 µM
[6] = second compound 0.1 µM, first compound 10 µM
[7] = second compound 0.316 µM, first compound 0.0316 µM
[8] = second compound 0.316 µM, first compound 0.1 µM
[9] = second compound 0.316 µM, first compound 0.316 µM
[10] = second compound 0.316 µM, first compound 1 µM
[11] = second compound 0.316 µM, first compound 3.16 µM
[12] = second compound 0.316 µM, first compound 10 µM
[13] = second compound 1 µM, first compound 0.0316 µM
[14] = second compound 1 µM, first compound 0.1 µM
[15] = second compound 1 µM, first compound 0.316 µM
[16] = second compound 1 µM, first compound 1 µM
[17] = second compound 1 µM, first compound 3.16 µM
[18] = second compound 1 µM, first compound 10 µM
[19] = second compound 3.16 µM, first compound 0.0316 µM
[20] = second compound 3.16 µM, first compound 0.1 µM
[21] = second compound 3.16 µM, first compound 0.316 µM
[22] = second compound 3.16 µM, first compound 1 µM
[23] = second compound 3.16 µM, first compound 3.16 µM
[24] = second compound 3.16 µM, first compound 10 µM
[25] = second compound 10 µM, first compound 0.0316 µM
[26] = second compound 10 µM, first compound 0.1 µM
[27] = second compound 10 µM, first compound 0.316 µM
[28] = second compound 10 µM, first compound 1 µM
[29] = second compound 10 µM, first compound 3.16 µM
[30] = second compound 10 µM, first compound 10 µM
[31] = second compound 0.1 µM, first compound 0.00316 µM
[32] = second compound 0.1 µM, first compound 0.01 µM
[33] = second compound 0.316 µM, first compound 0.00316 µM
[34] = second compound 0.316 µM, first compound 0.01 µM
[35] = second compound 1 µM, first compound 0.00316 µM
[36] = second compound 1 µM, first compound 0.01 µM
[37] = second compound 3.16 µM, first compound 0.00316 µM
[38] = second compound 3.16 µM, first compound 0.01 µM
[39] = second compound 10 µM, first compound 0.00316 µM
[40] = second compound 10 µM, first compound 0.01 µM
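Wherever viability, T/C is given: compound exposure lasted 7 days; 100% = DMSO vehicle control growth.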

Row | SMILES | IC50 (second compound 0.1 µM) [nM] | IC50 (second compound 0.316 µM) [nM] | IC50 (second compound 1 µM) [nM] | IC50 (second compound 3.16 µM) [nM] | IC50 (second compound 10 µM) [nM] | viability, T/C [1] [%] | viability, T/C [2] [%] | viability, T/C [3] [%] | viability, T/C [4] [%] | viability, T/C [7] [%] | viability, T/C [8] [%] | viability, T/C [9] [%] | viability, T/C [10] [%] | viability, T/C [13] [%] | viability, T/C [14] [%] | viability, T/C [15] [%] | viability, T/C [16] [%] | viability, T/C [19] [%] | viability, T/C [20] [%] | viability, T/C [21] [%] | other results
1 | CC(C)c1c(-c2ccccc2)nc2c(C#N)c[nH]n2c1=O + CC(CO)NC(=O)c1cc(-c2ccc(Cl)cc2)nn(-c2cnn(C)c2)c1=O | > 10000 | > 10000 | > 10000 | > 10000 | > 10000 | 109 | 97.8 | 95.2 | 102 | 106 | 105 | 95.9 | 96.5 | 110 | 112 | 108 | 107 | 106 | 95.5 | 116 | viability, T/C [5]: 90.2%; viability, T/C [6]: 97.4%; viability, T/C [11]: 106%; viability, T/C [12]: 97.5%; viability, T/C [17]: 113%; viability, T/C [18]: 95.8%; viability, T/C [22]: 100%; viability, T/C [23]: 106%; viability, T/C [24]: 99.2%; viability, T/C [25]: 108%; viability, T/C [26]: 117%; viability, T/C [27]: 111%; viability, T/C [28]: 97.8%; viability, T/C [29]: 104%; viability, T/C [30]: 97.1%
2 | CC1COCCN1c1cc(-c2ccnn2C)c2ccnc(-c3ccn[nH]3)c2n1 (stereo not given) + CC(CO)NC(=O)c1cc(-c2ccc(Cl)cc2)nn(-c2cnn(C)c2)c1=O | 474 | 690 | 944 | 398 | 295 | 108 | 79.7 | 52.4 | 47.1 | 104 | 89.3 | 56.3 | 47 | 106 | 84.4 | 64.6 | 48.5 | 114 | 80.7 | 53.6 | viability, T/C [31]: 106%; viability, T/C [32]: 109%; viability, T/C [33]: 107%; viability, T/C [34]: 114%; viability, T/C [35]: 118%; viability, T/C [36]: 120%; viability, T/C [37]: 114%; viability, T/C [38]: 130%; viability, T/C [22]: 43.2%; viability, T/C [39]: 107%; viability, T/C [40]: 119%; viability, T/C [25]: 103%; viability, T/C [26]: 68.6%; viability, T/C [27]: 50.5%; viability, T/C [28]: 44.8%
3 | COc1ccc([C@@H](O)c2cc(-c3ncnc4cc(N5CCOCC5)ccc34)c(F)cc2Cl)nn1 + CC(CO)NC(=O)c1cc(-c2ccc(Cl)cc2)nn(-c2cnn(C)c2)c1=O | 5380 | 6650 | 7720 | > 10000 | > 10000 | 98 | 105 | 92.9 | 69.7 | 110 | 108 | 99.9 | 69.5 | 104 | 117 | 108 | 91.1 | 113 | 112 | 105 | viability, T/C [5]: 61%; viability, T/C [6]: 41%; viability, T/C [11]: 58.7%; viability, T/C [12]: 45%; viability, T/C [17]: 61.9%; viability, T/C [18]: 46.4%; viability, T/C [22]: 85.3%; viability, T/C [23]: 64.3%; viability, T/C [24]: 51.7%; viability, T/C [25]: 113%; viability, T/C [26]: 110%; viability, T/C [27]: 109%; viability, T/C [28]: 82%; viability, T/C [29]: 62.4%; viability, T/C [30]: 53.2%
4 | COc1cccc2c1C(=O)c1c(O)c3c(c(O)c1C2=O)CC(O)(C(=O)CO)CC3OC1CC(N)C(O)C(C)O1 (stereo not given) + Cc1ccccc1N=Nc1ccc(NC(=O)c2ccnn2C)c(C)c1 | 423 | 416 | 519 | 489 | 493 | 83.7 | 78 | 60.2 | 20.7 | 82.7 | 77.9 | 59.9 | 19.2 | 85.7 | 93.8 | 70.9 | 21.4 | 83.2 | 79.9 | 68.3 | viability, T/C [5]: 2.13%; viability, T/C [6]: 2.2%; viability, T/C [11]: 3.1%; viability, T/C [12]: 3.13%; viability, T/C [17]: 3.42%; viability, T/C [18]: 2.49%; viability, T/C [22]: 20.1%; viability, T/C [23]: 4.16%; viability, T/C [24]: 1.64%; viability, T/C [25]: 79.2%; viability, T/C [26]: 85.7%; viability, T/C [27]: 70.2%; viability, T/C [28]: 17.2%; viability, T/C [29]: 2.04%; viability, T/C [30]: 2.28%
5 | Nc1ncn(C2CC(O)C(CO)O2)c(=O)n1 (stereo not given) + Cc1ccccc1N=Nc1ccc(NC(=O)c2ccnn2C)c(C)c1 | > 1000 | > 1000 | > 1000 | > 1000 | > 1000 | 90.4 | 84.7 | 85.1 | 77.4 | 85.9 | 89.6 | 78.7 | 74.1 | 95.1 | 92.3 | 89.2 | 78.1 | 81 | 79.6 | 73 | viability, T/C [31]: 95.9%; viability, T/C [32]: 95.5%; viability, T/C [33]: 108%; viability, T/C [34]: 98.8%; viability, T/C [35]: 98.5%; viability, T/C [36]: 97.7%; viability, T/C [37]: 86.7%; viability, T/C [38]: 81.6%; viability, T/C [22]: 82.8%; viability, T/C [39]: 85.4%; viability, T/C [40]: 77.9%; viability, T/C [25]: 71.2%; viability, T/C [26]: 72.4%; viability, T/C [27]: 77.6%; viability, T/C [28]: 75.3%
